# Source: the supplement of paper PMC10307832
# Experiments:
# Assay in all cases: relative viability (nuclei count vs DMSO), 5 days (fraction); higher = more cells survive
# [1] = compound: C[C@@]1(C(=O)Nc2ccc(F)nc2)CCCN1c1nc(Nc2cc(C3CC3)n[nH]2)c2cccn2n1 + CC(=O)Nc1cccc(-n2c(=O)n(C3CC3)c(=O)c3c(Nc4ccc(I)cc4F)n(C)c(=O)c(C)c32)c1 [Trametinib] (partner 0.02 µM)
# In short: (§1)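 Relative viability divides the nuclei count in treated wells by that in vehicle wells. Lung cancer cell lines were seeded in 1536-well plates, dosed by pin tool the next day, and fixed and stained after 5 days in one step with final 0.05% Triton X-100, 1% formaldehyde and 1 ug/ml Hoechst. Dosing was a single drug or a fixed anchor-drug dose plus five library-drug doses (not always all listed) in √10 steps, and values are medians of duplicate plates imaged at 4×.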
# [2] = compound: C[C@@]1(C(=O)Nc2ccc(F)nc2)CCCN1c1nc(Nc2cc(C3CC3)n[nH]2)c2cccn2n1 + CS(=O)(=O)N1CCN(Cc2cc3nc(-c4cccc5[nH]ncc45)nc(N4CCOCC4)c3s2)CC1 [Pictilisib] (partner 1 µM)
# In short: as §1
# Motesanib + Dasatinib = compound: CC1(C)CNc2cc(NC(=O)c3cccnc3NCc3ccncc3)ccc21 [Motesanib] + Cc1nc(Nc2ncc(C(=O)Nc3c(C)cccc3Cl)s2)cc(N2CCN(CCO)CC2)n1 [Dasatinib] (partner 0.075 µM)
# In short: as §1
# [3] = compound: C[C@@]1(C(=O)Nc2ccc(F)nc2)CCCN1c1nc(Nc2cc(C3CC3)n[nH]2)c2cccn2n1 + COc1cc2c(Oc3ccc(NC(=O)C4(C(=O)Nc5ccc(F)cc5)CC4)cc3F)ccnc2cc1OCCCN1CCOCC1 [Foretinib] (partner 0.25 µM)
# In short: as §1
Cell Line,relative viability ([1]; first compound 0.04 µM),relative viability ([1]; first compound 0.1265 µM),relative viability ([1]; first compound 0.4 µM),relative viability ([1]; first compound 1.265 µM),relative viability ([2]; first compound 0.04 µM),relative viability ([2]; first compound 0.1265 µM),relative viability ([2]; first compound 0.4 µM),relative viability ([2]; first compound 1.265 µM),relative viability (Motesanib + Dasatinib; first compound 0.01 µM),relative viability (Motesanib + Dasatinib; first compound 0.03162 µM),relative viability (Motesanib + Dasatinib; first compound 0.1 µM),relative viability (Motesanib + Dasatinib; first compound 0.3162 µM),relative viability (Motesanib + Dasatinib; first compound 1 µM),relative viability ([3]; first compound 0.04 µM),relative viability ([3]; first compound 0.1265 µM),relative viability ([3]; first compound 0.4 µM),relative viability ([3]; first compound 1.265 µM)
HCC-44,0.879,0.871,0.717,1.02,0.532,0.386,0.841,0.328,–,–,–,–,–,–,–,–,–
HCC-827,0.518,0.499,0.45,0.557,0.889,1.07,1.1,1,0.308,0.307,0.293,0.274,0.228,1.03,1.14,1.06,1.2
NCI-H1623,–,–,–,–,–,–,–,–,0.481,0.567,0.562,0.556,0.538,0.658,0.82,0.57,0.672
NCI-H2347,0.251,0.289,0.256,0.248,0.595,0.6,0.516,0.776,0.299,0.302,0.344,0.3,0.305,1.32,0.818,1.02,0.834
PC-14,0.765,0.649,0.696,0.687,0.505,0.0522,0.37,0.485,0.288,0.286,0.256,0.298,0.319,1.04,0.888,0.813,0.93
NCI-H1651,0.723,0.798,0.712,0.757,0.484,0.447,0.39,0.538,0.408,0.339,0.384,0.451,0.432,0.775,0.704,0.621,0.895
HARA,0.66,0.331,0.483,0.618,0.366,0.208,0.215,0.294,0.225,0.2,0.215,0.303,0.3,0.802,0.78,0.652,1.01
NCI-H1650,0.672,0.5,0.51,0.572,0.561,0.489,0.533,0.403,0.374,0.337,0.33,0.329,0.298,1.53,1.16,0.984,1.08
NCI-H1395,1.02,0.863,0.901,0.989,0.664,0.436,0.761,0.788,0.425,0.476,0.42,0.443,0.417,1.05,0.84,0.932,0.921
LU99A,0.411,0.352,0.399,0.504,0.233,0.217,0.225,0.163,0.636,0.453,0.681,0.606,0.524,0.602,0.467,0.478,0.432
NCI-H1355,0.36,0.302,0.289,0.346,0.428,0.462,0.332,0.439,0.74,0.548,0.717,0.732,0.684,0.929,0.87,0.701,1
HCC-78,0.637,1.19,0.334,0.327,0.204,0.148,0.172,0.189,0.342,0.406,0.291,0.391,0.437,0.505,0.323,0.347,0.421
NCI-H1563,–,–,–,–,0.625,0.614,0.596,0.598,0.424,0.44,0.447,0.473,0.421,1,0.975,0.784,0.83
HCC-15,0.237,0.204,0.19,0.264,0.715,0.573,0.747,0.745,0.648,0.53,0.648,0.758,0.723,0.906,0.485,0.614,0.686
EKVX,0.433,0.227,0.355,0.288,0.354,0.328,0.33,0.409,0.592,0.462,0.527,0.654,0.505,0.684,0.751,0.602,0.253
NCI-H2087,0.158,0.161,0.15,0.138,0.896,0.783,0.792,0.7,0.838,0.841,0.774,0.91,0.895,0.812,0.801,0.705,0.72
LK-2,0.426,1.15,0.416,0.495,0.574,0.565,0.569,0.523,0.322,0.212,–,0.379,0.245,0.731,0.945,0.671,0.979
NCI-H1437,0.404,0.3,0.277,0.277,0.271,0.295,0.248,0.363,0.266,0.22,0.383,0.575,0.405,1.31,1.2,1.04,1.11
COR-L23,0.59,0.542,0.441,0.269,0.518,0.463,0.31,0.335,0.561,0.59,0.515,0.499,0.451,0.967,0.865,0.762,0.695
ABC-1,–,–,–,–,0.598,0.6,0.467,0.394,0.518,0.544,0.605,0.65,0.619,0.773,0.782,0.744,0.38
